7 compounds from patent US20250276983A1, “COMPOUNDS AND METHODS FOR MODULATING HER2” (IAMBIC THERAPEUTICS, INC., priority 2022, published 2025) can be followed below.

In assay [1] the target is wtERBB2 (Homo sapiens (Human), UniProt P04626). Put plainly: HotSpot radiometric kinase activity assay, wtERBB2. Format: biochemical. The note with it: 30 nM wtERBB2, 10 μM 33P-ATP, 20 min preincubation, 2 hours, read-out: HER2 WT IC50. As to the method: (§1) The purpose of the wtERBB2, ERBB2-A775_G776insYVMA (ERBB2YVMA), wtEGFR biochemical assay was to evaluate the inhibition (% inhibition and IC50 values) of the small molecule inhibitors by using the “HotSpot” radiometric kinase activity assay. HotSpot assays monitor the […] of kinase substrate by the radioactive gamma phosphate of adenosine triphosphate (33P-ATP) during biochemical reactions. HotSpot assays was performed in steps upon completion of the kinase reaction: deposition of a reaction mixture aliquot onto P81 ion exchange paper, extensive washing of the aforementioned P81 paper using phosphoric acid to remove unbound radiolabeled 33P-ATP from the P81 paper, and finally visualization and quantification of the dried P81 paper utilizing a phosphoimager. […] Typical reaction solutions (10 μL final reaction volume) contained the following buffer conditions: 20 mM Hepes (pH 7.5), 10 mM MgCl2, 1 mM EGTA, 0.01% Brij35, 0.02 mg/mL BSA, 0.1 mM Na3VO4, 2 mM DTT, 1% DMSO. The assay was primed by preparing a fresh 0.2 mg/mL solution of pEY (Sigma Cat: P7244) substrate in the reaction buffer and supplementing that solution with […] of MnCl2 as substrate cofactor (Sigma Cat: M9522). The kinase of interest was then added to the solution at the appropriate concentration (30 nM wtERBB2 from, or 20 nM ERBB2YVMA, or 4 nM wtEGFR) and gently mixed prior to delivery of compound in 100% DMSO by acoustic dispensing (Beckman Echo550). Compound, Kinase, and substrate were allowed to incubate for 20 min at room temperature prior to the initiation of the reaction by addition of 33P-ATP (PerkinElmer Cat: NEG602, final conc 10 μM). […] IC50 determinations were made from a plot of kinase activity as a function of inhibitor concentration fit to the 4-parameter IC50 equation with the enzyme concentration held constant using GraphPad Prism (San Diego).

Assay [2] deals with BaF3_EGFRWT cells. Put plainly: Cell growth inhibition assay, BaF3_EGFRWT. As to conditions: 72 h, 80 ng/mL recombinant human EGF, 3 days treatment, CellTiterGlo 2.0, read-out: EGFR WT IC50 (nM), cell growth inhibition. Format: cell-based. In general terms: Cellular ATP, detected with luciferase, serves as a proxy for viable cell number.
In assay [3] the target is wtEGFR (Homo sapiens (Human), UniProt P00533). Put plainly: HotSpot radiometric kinase activity assay, wtEGFR. Format: biochemical. The note with it: 4 nM wtEGFR, 10 μM 33P-ATP, 20 min preincubation, 2 hours, read-out: EGFR WT IC50. Here is the method: as §1
The test system of assay [4] is BaF3_HER2WT cells. The experiment in a line: Cell growth inhibition assay, BaF3_HER2WT. Format: cell-based. As to conditions: 72 h, 3 days treatment, CellTiterGlo 2.0, read-out: HER2 WT IC50 (nM), cell growth inhibition.
The test system of assay [5] is BaF3_HER2YVMA cells. The experiment in a line: Cell growth inhibition assay, BaF3_HER2YVMA. Format: cell-based. The note with it: 72 h, read-out: HER2-YVMA IC50 (nM), cell growth inhibition.
The mark [6] stands for this setting: BaF3_HER2YVMA cells, 3 days treatment, CellTiterGlo 2.0.

Like-named read-outs stand apart in the source and are kept apart here. Where only a bound is given, the exact number is not on record here.

wtEGFR, sequence (P00533 25-1210): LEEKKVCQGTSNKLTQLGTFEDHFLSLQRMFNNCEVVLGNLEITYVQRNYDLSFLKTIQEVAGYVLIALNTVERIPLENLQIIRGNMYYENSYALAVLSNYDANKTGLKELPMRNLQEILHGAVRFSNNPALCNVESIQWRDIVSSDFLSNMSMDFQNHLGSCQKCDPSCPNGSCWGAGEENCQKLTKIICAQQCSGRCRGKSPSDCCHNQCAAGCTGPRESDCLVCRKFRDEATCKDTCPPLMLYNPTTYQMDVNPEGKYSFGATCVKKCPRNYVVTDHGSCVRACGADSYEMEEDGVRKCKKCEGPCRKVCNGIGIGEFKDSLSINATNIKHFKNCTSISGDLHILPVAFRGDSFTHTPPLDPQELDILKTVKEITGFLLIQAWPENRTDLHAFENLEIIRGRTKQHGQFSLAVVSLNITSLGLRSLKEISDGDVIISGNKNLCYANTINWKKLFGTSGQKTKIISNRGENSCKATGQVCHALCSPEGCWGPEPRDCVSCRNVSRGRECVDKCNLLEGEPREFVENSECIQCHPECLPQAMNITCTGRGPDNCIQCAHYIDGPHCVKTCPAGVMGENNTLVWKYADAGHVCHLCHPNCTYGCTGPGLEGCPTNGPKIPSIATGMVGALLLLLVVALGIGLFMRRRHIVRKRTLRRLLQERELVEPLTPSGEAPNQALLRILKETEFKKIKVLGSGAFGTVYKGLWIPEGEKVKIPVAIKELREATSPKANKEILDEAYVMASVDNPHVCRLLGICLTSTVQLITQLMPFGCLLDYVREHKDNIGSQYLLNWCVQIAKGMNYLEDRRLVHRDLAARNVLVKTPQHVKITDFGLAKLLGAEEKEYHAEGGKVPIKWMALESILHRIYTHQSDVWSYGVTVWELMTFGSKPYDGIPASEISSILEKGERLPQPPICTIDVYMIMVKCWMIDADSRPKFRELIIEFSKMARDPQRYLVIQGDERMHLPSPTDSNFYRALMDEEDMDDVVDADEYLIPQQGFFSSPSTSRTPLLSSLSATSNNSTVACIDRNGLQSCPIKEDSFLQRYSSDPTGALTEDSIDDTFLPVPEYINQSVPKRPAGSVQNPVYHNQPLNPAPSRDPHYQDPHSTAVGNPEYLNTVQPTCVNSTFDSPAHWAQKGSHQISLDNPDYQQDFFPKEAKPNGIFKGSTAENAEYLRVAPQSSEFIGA
wtERBB2, sequence (P04626 23-1255): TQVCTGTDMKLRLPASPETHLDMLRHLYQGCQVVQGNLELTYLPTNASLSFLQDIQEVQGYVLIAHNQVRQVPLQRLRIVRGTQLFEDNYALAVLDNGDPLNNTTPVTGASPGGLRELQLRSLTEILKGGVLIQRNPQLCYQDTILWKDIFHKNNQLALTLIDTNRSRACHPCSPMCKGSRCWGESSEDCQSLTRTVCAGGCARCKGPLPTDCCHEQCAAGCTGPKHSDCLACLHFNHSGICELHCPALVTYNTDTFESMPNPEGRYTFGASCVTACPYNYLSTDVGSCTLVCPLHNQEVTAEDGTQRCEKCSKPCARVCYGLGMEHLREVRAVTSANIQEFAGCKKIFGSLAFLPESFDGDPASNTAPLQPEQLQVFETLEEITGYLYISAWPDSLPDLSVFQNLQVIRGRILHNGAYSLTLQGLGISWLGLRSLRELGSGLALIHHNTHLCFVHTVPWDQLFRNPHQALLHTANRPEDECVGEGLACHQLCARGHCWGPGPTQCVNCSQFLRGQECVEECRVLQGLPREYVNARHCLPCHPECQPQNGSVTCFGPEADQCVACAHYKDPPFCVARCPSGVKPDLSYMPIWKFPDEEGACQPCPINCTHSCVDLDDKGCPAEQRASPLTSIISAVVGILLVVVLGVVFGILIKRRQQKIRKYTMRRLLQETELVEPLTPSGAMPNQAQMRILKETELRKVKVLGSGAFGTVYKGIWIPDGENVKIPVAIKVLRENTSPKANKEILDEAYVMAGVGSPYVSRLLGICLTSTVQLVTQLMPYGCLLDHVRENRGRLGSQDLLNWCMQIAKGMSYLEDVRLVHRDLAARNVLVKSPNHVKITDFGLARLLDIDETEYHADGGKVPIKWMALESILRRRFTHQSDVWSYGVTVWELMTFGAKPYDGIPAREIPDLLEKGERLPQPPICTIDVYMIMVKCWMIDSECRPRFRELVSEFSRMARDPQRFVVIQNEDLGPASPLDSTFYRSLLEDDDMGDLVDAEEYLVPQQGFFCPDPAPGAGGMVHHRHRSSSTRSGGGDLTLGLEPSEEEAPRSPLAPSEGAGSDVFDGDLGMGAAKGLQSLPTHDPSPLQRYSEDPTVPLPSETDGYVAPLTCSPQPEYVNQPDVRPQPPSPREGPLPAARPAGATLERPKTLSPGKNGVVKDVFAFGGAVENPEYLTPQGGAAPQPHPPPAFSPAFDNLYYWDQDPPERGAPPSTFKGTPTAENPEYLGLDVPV

As a reminder, the IC50 is the concentration at which inhibition is half-maximal. Consider `C=CC(=O)N1CC(c2ccn(-c3ccn4ncnc(Nc5ccc(Oc6ccn7ncnc7c6)c(C)c5)c34)n2)C1` [Example 10, 1-(3-(1-(4-((4-([1,2,4]triazolo[1,5-a]pyridin-7-yloxy)-3-methylphenyl)amino)pyrrolo[2,1-f][1,2,4]triazin-5-yl)-1H-pyrazol-3-yl)azetidin-1-yl)prop-2-en-1-one], for which the IC50 in assay [1] is under 200 nM; in assay [2], 1500 to 5000 nM; in assay [3] it was under 200 nM; in assay [4], 200 to 500 nM; in assay [5] (setting [6]), 500 to 1500 nM.

As to `C=CC(=O)N1CCCC(c2ccn3ncnc(Nc4ccc(Oc5ccn6ncnc6c5)c(C)c4)c23)C1` (centres unmarked) [Example 12, 1-(3-(4-((4-([1,2,4]triazolo[1,5-a]pyridin-7-yloxy)-3-methylphenyl)amino)pyrrolo[2,1-f][1,2,4]triazin-5-yl)piperidin-1-yl)prop-2-en-1-one], the IC50 in assay [1] is under 200 nM; in assay [2], 1500 to 5000 nM; in assay [3] it was under 200 nM; in assay [4] it was under 200 nM; in assay [5] (setting [6]), under 200 nM.

For `Cc1cc(Nc2ncnn3ccc(C4CN(C(=O)/C=C/CN5CCCCC5)C4)c23)ccc1Oc1ccn2ncnc2c1` [Example 94, (E)-1-(3-(4-((4-([1,2,4]triazolo[1,5-a]pyridin-7-yloxy)-3-methylphenyl)amino)pyrrolo[2,1-f][1,2,4]triazin-5-yl)azetidin-1-yl)-4-(piperidin-1-yl)but-2-en-1-one], the IC50 is under 200 nM in assay [1]; 1500 to 5000 nM in assay [2]; under 200 nM in assay [3]; under 200 nM in assay [4]; under 200 nM in assay [5] (setting [6]).

Turning to `Cc1cc(Nc2ncnn3ccc(C4CN(C(=O)/C=C/CN5CCCC5)C4)c23)ccc1Oc1ccn2ncnc2c1` [Example 97, (E)-1-(3-(4-((4-([1,2,4]triazolo[1,5-a]pyridin-7-yloxy)-3-methylphenyl)amino)pyrrolo[2,1-f][1,2,4]triazin-5-yl)azetidin-1-yl)-4-(pyrrolidin-1-yl)but-2-en-1-one], the IC50 was under 200 nM in assay [1]; 1500 to 5000 nM in assay [2]; under 200 nM in assay [3]; under 200 nM in assay [4]; under 200 nM in assay [5].

Take `Cc1cc(Nc2ncnn3ccc(C4CCN(C(=O)/C=C/CN(C)C)C4)c23)ccc1Oc1ccn2ncnc2c1` (centres unmarked) [Example 98, (E)-1-(3-(4-((4-([1,2,4]triazolo[1,5-a]pyridin-7-yloxy)-3-methylphenyl)amino)-pyrrolo-[2,1-f][1,2,4]triazin-5-yl)pyrrolidin-1-yl)-4-(dimethylamino)but-2-en-1-one]: the IC50 is under 200 nM in assay [1]; 1500 to 5000 nM in assay [2]; under 200 nM in assay [3]; under 200 nM in assay [4]; 200 to 500 nM in assay [5] (setting [6]).

On to `Cc1cc(Nc2ncnn3ccc(C4CN(C(=O)/C=C/CN(C)C)C4)c23)ccc1Oc1ccc2c(c1)ncn2C` [Example 101, (E)-4-(dimethylamino)-1-(3-(4-((3-methyl-4-((1-methyl-1H-benzo[d]imidazol-5-yl)oxy)phenyl)amino)pyrrolo[2,1-f][1,2,4]triazin-5-yl)azetidin-1-yl)but-2-en-1-one], for which the IC50 in assay [1] was under 200 nM; in assay [2], 1500 to 5000 nM; in assay [3], under 200 nM; in assay [4] it was under 200 nM; in assay [5] (setting [6]) it was under 200 nM.

As to `C=CC(=O)N1CCC(c2ccn3ncnc(Nc4ccc(Oc5ccc6c(c5)ncn6C)c(C)c4)c23)CC1` [Example 113, 1-(4-(4-((3-methyl-4-((1-methyl-1H-benzo[d]imidazol-5-yl)oxy)phenyl)amino)pyrrolo[2,1-f][1,2,4]triazin-5-yl)piperidin-1-yl)prop-2-en-1-one], the half-maximal inhibitory concentration (IC50) was under 200 nM in assay [1]; 500 to 1500 nM in assay [2]; under 200 nM in assay [3]; under 200 nM in assay [4]; under 200 nM in assay [5] (setting [6]).
